{"source": "paper PMC4261083", "about": "“An atypical residue in the pore of Varroa destructor GABA-activated RDL receptors affects picrotoxin block and thymol modulation” (Insect Biochemistry and Molecular Biology, 2014)", "assay_in_all_cases": "GABA activation of RDL receptors, two electrode voltage clamp in Xenopus oocytes", "assay_type_in_all_cases": "cell-based", "key": {"[1]": {"target": "T1, 4M2 mutant Drosophila RDL receptor (N-7′H, T6′M, A20′S and A21′Q) (Drosophila melanogaster, UniProt P25123, A319S/A320Q/N292H/T305M)", "T1 construct": "expressed in transfected cells; host or cells: Xenopus laevis oocytes injected with cRNA", "T1 sequence (P25123 45-606 N292H/T305M/A319S/A320Q)": "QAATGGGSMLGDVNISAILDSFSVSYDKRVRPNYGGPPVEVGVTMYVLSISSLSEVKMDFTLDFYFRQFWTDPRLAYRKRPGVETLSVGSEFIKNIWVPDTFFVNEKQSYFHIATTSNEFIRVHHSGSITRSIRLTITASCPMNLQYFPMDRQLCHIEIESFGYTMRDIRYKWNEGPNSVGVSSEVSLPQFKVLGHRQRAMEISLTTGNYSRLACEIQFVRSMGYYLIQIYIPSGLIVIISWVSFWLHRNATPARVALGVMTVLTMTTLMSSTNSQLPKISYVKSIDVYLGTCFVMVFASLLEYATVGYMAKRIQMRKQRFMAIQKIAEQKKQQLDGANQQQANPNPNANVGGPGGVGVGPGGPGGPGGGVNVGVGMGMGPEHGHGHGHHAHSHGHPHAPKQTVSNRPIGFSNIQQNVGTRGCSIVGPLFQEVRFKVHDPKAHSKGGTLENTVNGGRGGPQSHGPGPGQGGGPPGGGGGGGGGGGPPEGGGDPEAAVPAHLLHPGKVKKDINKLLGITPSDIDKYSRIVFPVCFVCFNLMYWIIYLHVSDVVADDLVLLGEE", "conditions": "4M2 RDL", "description": "(§1) X. laevis oocyte-positive females were purchased from NASCO (Fort Atkinson, Wisconsin, USA) and maintained according to standard methods. Harvested stage V-VI Xenopus oocytes were washed in four changes of ND96 (96 mM NaCl, 2 mM KCl, 1 mM MgCl2, 1 mM CaCl2, 5 mM HEPES, pH 7.5), de-folliculated in 1.5 mg ml^−1 collagenase Type 1A for approximately 2 h, washed again in four changes of ND96 and stored in ND96 containing 2.5 mM sodium pyruvate, 0.7 mM theophylline and […].\n(§2) Site directed mutagenesis was performed with the QuikChange mutagenesis kit (Agilent, La Jolla, CA). cRNA was transcribed in vitro from linearised pGEMHE cDNA template using the mMessage mMachine T7 Transcription kit (Ambion, Austin, Texas, USA). Stage V and VI oocytes were injected with 5 ng cRNA, incubated at 18 °C, and currents recorded 18–24 h post-injection.\n(§3) Currents were recorded at 5 kHz and filtered at a frequency of 1 kHz. Micro-electrodes were fabricated from borosilicate glass (GC120TF-10, Harvard Apparatus, Edenbridge, Kent, UK) using a one stage horizontal pull (P-87, Sutter Instrument Company, California, USA) and filled with 3 M KCl. […] Oocytes were perfused with ND96 at a constant rate of 12 ml min^−1. Drug application was via a simple gravity fed system calibrated to run at the same rate.\n(§4) Analysis and curve fitting was performed using Prism v5 (GraphPad Software, San Diego, California, USA). Concentration-response data for each oocyte was normalised to the maximum current for that oocyte. The mean and S.E.M. for a series of oocytes were fitted to the four parameter logistic equation in Prism."}, "[2]": {"target": "T2, A21′Q mutant Drosophila RDL receptor (Drosophila melanogaster, UniProt P25123, A320Q)", "T2 construct": "expressed in transfected cells; host or cells: Xenopus laevis oocytes injected with cRNA", "T2 sequence (P25123 45-606 A320Q)": "T1 sequence (P25123 45-606 N292H/T305M/A319S/A320Q) with H248N, M261T, S275A", "description": "as §1, §2, §3, §4"}, "[3]": {"target": "T3, N-7′H mutant Drosophila RDL receptor (Drosophila melanogaster, UniProt P25123, N292H)", "T3 construct": "expressed in transfected cells; host or cells: Xenopus laevis oocytes injected with cRNA", "T3 sequence (P25123 45-606 N292H)": "T1 sequence (P25123 45-606 N292H/T305M/A319S/A320Q) with M261T, S275A, Q276A", "conditions": "N-7′H RDL", "description": "as §1, §2, §3, §4"}}, "note": "Positions count from the first letter of the chain named."}
{"compound": "NCCCC(=O)O", "note": "[GABA]", "values": [{"measurement": "GABA nH (Hill slope)", "setting": "[1]", "result": "1.0 ± 0.3"}, {"measurement": "GABA nH (Hill slope)", "setting": "[2]", "result": "1.9 ± 0.4"}, {"measurement": "GABA nH (Hill slope)", "setting": "[3]", "result": "2.5 ± 0.5"}]}
